From patent US20050101657A1, “Androgen receptor antagonists” (Takeda Chemical Industries Ltd., priority 2001, published 2005)
Changes are numbered by the printed parent chain.

How the values were obtained:
[1] = system: Human prostate cancer cells LNCaP-FGC; assay: Inhibition of prostate-specific antigen (PSA) production in prostate cancer cells; assay type: cell-based; details: 72 h, testosterone 1 ng/ml, three days after addition, ELISA, read-out: IC50, PSA production in culture supernatant
Method: Human prostate cancer cells LNCaP-FGC were seeded in a 24-well plate at a concentration of 40,000 cells/ml/well or in a 96-well plate at a concentration of 5000 cells/100 μl/well. On the following day, testosterone (final concentration 1 ng/ml) and a compound (final concentration 0.01 to 10 μM) were added. Three days after the addition, the concentration of PSA in the supernatant of the culture solution was measured by ELISA, and IC50 was calculated.

[2] = target: T1, LNCaP type mutant androgen receptor (Homo sapiens, UniProt P10275, T878A); assay: AR-binding inhibition test (LNCaP type); details: radio labeled Mibolerone 3 nM; 4° C., 3 hours; dextran/charcoal method
T1 sequence (P10275 1-920 T878A): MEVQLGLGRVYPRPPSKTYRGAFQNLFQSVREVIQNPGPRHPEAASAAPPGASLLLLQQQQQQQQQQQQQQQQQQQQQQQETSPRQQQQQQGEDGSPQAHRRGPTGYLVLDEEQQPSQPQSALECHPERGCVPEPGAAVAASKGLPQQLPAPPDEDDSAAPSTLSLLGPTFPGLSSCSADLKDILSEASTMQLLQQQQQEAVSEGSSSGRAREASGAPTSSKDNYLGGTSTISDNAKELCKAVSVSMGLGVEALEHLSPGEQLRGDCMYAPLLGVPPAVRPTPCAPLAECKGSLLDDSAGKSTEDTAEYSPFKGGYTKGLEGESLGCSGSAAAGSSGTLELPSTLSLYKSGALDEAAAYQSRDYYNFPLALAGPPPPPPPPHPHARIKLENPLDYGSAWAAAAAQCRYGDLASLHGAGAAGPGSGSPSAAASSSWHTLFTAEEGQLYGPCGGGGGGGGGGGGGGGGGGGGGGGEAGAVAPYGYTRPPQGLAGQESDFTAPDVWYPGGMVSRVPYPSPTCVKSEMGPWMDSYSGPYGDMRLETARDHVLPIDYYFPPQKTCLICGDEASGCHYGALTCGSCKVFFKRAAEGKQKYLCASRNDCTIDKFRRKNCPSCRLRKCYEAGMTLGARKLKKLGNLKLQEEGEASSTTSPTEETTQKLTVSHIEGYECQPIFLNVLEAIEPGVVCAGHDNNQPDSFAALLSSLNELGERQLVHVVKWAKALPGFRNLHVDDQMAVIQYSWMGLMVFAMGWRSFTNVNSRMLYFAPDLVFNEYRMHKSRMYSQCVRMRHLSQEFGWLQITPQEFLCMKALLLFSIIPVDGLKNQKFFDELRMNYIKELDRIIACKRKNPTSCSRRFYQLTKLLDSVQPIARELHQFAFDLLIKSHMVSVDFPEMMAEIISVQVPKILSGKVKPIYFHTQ
Method: (§1) A solution of wild type or LNCaP type mutant androgen receptor, radio labeled Mibolerone (final concentration 3 nM) and a compound (final concentration 0.001 to 10 μM) were mixed. The mixture was incubated at 4° C. for 3 hours, and by the dextran/charcoal method, B (Bound) and F (Free) Mibolerone were separated. The radioactivity of B was measured and IC50 was calculated.

mutation type AR (W741C) = target: T2, mutation type AR (W741C) (Homo sapiens, UniProt P10275, W742C); assay: AR transcription inhibition test (luciferase reporter); assay type: cell-based; details: Cos-7 cells; test compound 1 μM; DHT 0.04 μM; 24 hours; luciferase activity; read-out: Inhibition rate (%) relative to the control
T2 construct: expressed in transfected cells; host or cells: Cos-7
T2 sequence (P10275 1-920 W742C): T1 sequence (P10275 1-920 T878A) with W742C, A878T
Method: Cos-7 cells were inoculated in a flask at 5,000,000 cells, and incubated in a culture solution (DMEM+10% Dextran Charcoal (DCC)-Fetal Bovine Serum (FBS) +2 mM glutamine) for 24 hours. A vector DNA in which a mutation type AR (W741C) gene was inserted and a vector DNA combined with luciferase gene downstream of the androgen responsive promoter were cotransfected by the liposome method. Two hours later, the culture medium was replaced and incubation was further carried out for 3 hours. DHT (Dihydrotestosterone) at a final concentration 0.04 μM and a test compound at a final concentration of 1 μM were added, and incubation was further carried out for 24 hours. By measuring luciferase activity, AR transcription inhibitory activity of the test compound was examined.

[3] = target: T3, wild type androgen receptor (Homo sapiens, UniProt P10275); assay: AR-binding inhibition test (wild type); details: radio labeled Mibolerone 3 nM; 4° C., 3 hours; dextran/charcoal method
T3 sequence (P10275 1-920): T1 sequence (P10275 1-920 T878A) with A878T
Method: as §1

In the case of CC(O)(CS(=O)(=O)c1ccc(F)cc1)C(=O)Nc1ccc(C#N)c(C(F)(F)F)c1 (stereo not shown) [Bicalutamide, bicalutamide, reference compound], the IC50 [1] is reported as 823 nM.

CCOC(=O)c1c(C)[nH]c(C)c1-c1ccc([N+](=O)[O-])cc1 [Example 1, Ethyl 2,5-dimethyl-4-(4-nitrophenyl)-1H-pyrrole-3-carboxylate] showed an IC50 [2] of 200 nM, an inhibition at 1 µM (mutation type AR (W741C)) of 64.3% and an IC50 [1] of 392 nM. The IC50 [3] was 190 nM.

Work on CCOC(=O)c1c(-c2ccc([N+](=O)[O-])cc2)c(C)n(Cc2ccccc2)c1C [Example 4, Ethyl 1-benzyl-2,5-dimethyl-4-(4-nitrophenyl)-1H-pyrrole-3-carboxylate] yielded an IC50 [2] of 7.5 nM, an inhibition at 1 µM (mutation type AR (W741C)) of 20.1% and an IC50 [1] of 87 nM. For the same compound, the IC50 [3] was 7.8 nM.

COC(=O)c1c(-c2ccc(C#N)cc2)c(C)n(Cc2ccc(C#N)cc2)c1C [Example 80, Methyl 1-(4-cyanobenzyl)-4-(4-cyanophenyl)-2,5-dimethyl-1H-pyrrole-3-carboxylate] showed an IC50 [2] of 68 nM, an inhibition at 1 µM (mutation type AR (W741C)) of 80.1% and an IC50 [1] of 34 nM. The IC50 [3] was 40 nM.
